{"source": "patent US20260218136A1", "about": "“R[…], COMPOSITIONS, AND METHODS OF USE” (priority 2022, published 2026)", "origin": "cited, not measured here", "conditions": "target and test not given; stated in the description of the rapalog bridging factor"}
{"compound": "CO[C@H]1[C@@H](O)[C@H](C)C[C@H](C)/C=C/C=C/C=C(\\C)[C@@H](c2c[nH]c3c(C)cccc23)C[C@@H]2CC[C@@H](C)[C@@](O)(O2)C(=O)C(=O)N2CCCC[C@H]2C(=O)O[C@H]([C@H](C)C[C@@H]2CC[C@@H](O)[C@H](OC)C2)C[C@H](O)[C@H](C)/C=C(\\C)[C@H]1O", "note": "[AP21967, C-16-(S)-7-methylindolerapamycin]", "values": [{"measurement": "IC50", "value": 10, "unit": "nM"}]}
